Measured values published in PubChem BioAssay (NCI).
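Cultured in 96-well plates, cells were exposed to test compound for 48 hours across five concentrations. GI50 is the concentration that inhibits growth by half. Definition used: TGI = concentration required for complete inhibition of growth.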

Tests used:
Assay in all cases: DTP human tumour cell line panel, 48 h
OVCAR-5 ovarian = system: OVCAR-5 ovarian
T-47D breast = system: T-47D breast
KM12 colon = system: KM12 colon
HS 578T breast = system: HS 578T breast
MCF7 breast = system: MCF7 breast
SK-OV-3 ovarian = system: SK-OV-3 ovarian
HT29 colon = system: HT29 colon
HOP-62 NSCLC = system: HOP-62 NSCLC
SF-268 CNS = system: SF-268 CNS
CCRF-CEM leukemia = system: CCRF-CEM leukemia
OVCAR-4 ovarian = system: OVCAR-4 ovarian
TK-10 renal = system: TK-10 renal
LOX IMVI melanoma = system: LOX IMVI melanoma
SK-MEL-28 melanoma = system: SK-MEL-28 melanoma
786-0 renal = system: 786-0 renal
A549 NSCLC = system: A549 NSCLC
HL-60(TB) leukemia = system: HL-60(TB) leukemia
U251 CNS = system: U251 CNS
HCT-116 colon = system: HCT-116 colon
HOP-92 NSCLC = system: HOP-92 NSCLC
BT-549 breast = system: BT-549 breast
OVCAR-8 ovarian = system: OVCAR-8 ovarian
NCI-H460 lung = system: NCI-H460 lung
SK-MEL-2 melanoma = system: SK-MEL-2 melanoma
COLO 205 colon = system: COLO 205 colon
CAKI-1 renal = system: CAKI-1 renal
UACC-62 melanoma = system: UACC-62 melanoma
SW-620 colon = system: SW-620 colon
NCI-H226 lung = system: NCI-H226 lung
MDA-MB-435 = system: MDA-MB-435
SNB-19 CNS = system: SNB-19 CNS
DU-145 prostate = system: DU-145 prostate
NCI-H23 lung = system: NCI-H23 lung
SF-295 CNS = system: SF-295 CNS
UACC-257 melanoma = system: UACC-257 melanoma
PC-3 prostate = system: PC-3 prostate
SK-MEL-5 melanoma = system: SK-MEL-5 melanoma
SNB-75 CNS = system: SNB-75 CNS
MOLT-4 leukemia = system: MOLT-4 leukemia
NCI-H522 lung = system: NCI-H522 lung
IGROV1 ovarian = system: IGROV1 ovarian
ACHN renal = system: ACHN renal
OVCAR-3 ovarian = system: OVCAR-3 ovarian
UO-31 renal = system: UO-31 renal
K-562 leukemia = system: K-562 leukemia
RXF 393 renal = system: RXF 393 renal
EKVX NSCLC = system: EKVX NSCLC
MALME-3M melanoma = system: MALME-3M melanoma
M14 melanoma = system: M14 melanoma
SF-539 CNS = system: SF-539 CNS
MDA-MB-231 breast = system: MDA-MB-231 breast
HCC-2998 colon = system: HCC-2998 colon
NCI/ADR-RES ovarian = system: NCI/ADR-RES ovarian
HCT-15 colon = system: HCT-15 colon
SN12C renal = system: SN12C renal

C#CCn1cc(C=C2C(=O)NC(=S)NC2=O)c2cc(Cl)ccc21
GI50 (OVCAR-5 ovarian): 1.96 µM | TGI (OVCAR-5 ovarian): 4.12 µM | GI50 (T-47D breast): 3.04 µM | TGI (T-47D breast): 14.1 µM | GI50 (KM12 colon): 1.62 µM | TGI (KM12 colon): 3.33 µM | GI50 (HS 578T breast): 2.34 µM | TGI (HS 578T breast): 7.6 µM | GI50 (MCF7 breast): 1.67 µM | TGI (MCF7 breast): 3.46 µM | GI50 (SK-OV-3 ovarian): 2.87 µM | TGI (SK-OV-3 ovarian): 14.7 µM | GI50 (HT29 colon): 2.21 µM | TGI (HT29 colon): 4.68 µM | GI50 (HOP-62 NSCLC): 2.64 µM | TGI (HOP-62 NSCLC): 8.98 µM | GI50 (SF-268 CNS): 2.12 µM | TGI (SF-268 CNS): 5.41 µM | GI50 (CCRF-CEM leukemia): 2.32 µM | TGI (CCRF-CEM leukemia): 6.45 µM | GI50 (OVCAR-4 ovarian): 2.28 µM | TGI (OVCAR-4 ovarian): 7.01 µM | GI50 (TK-10 renal): 2.36 µM | TGI (TK-10 renal): 5.95 µM | GI50 (LOX IMVI melanoma): 1.65 µM | TGI (LOX IMVI melanoma): 3.11 µM | GI50 (SK-MEL-28 melanoma): 2.33 µM | TGI (SK-MEL-28 melanoma): 5.56 µM | GI50 (786-0 renal): 2.17 µM | TGI (786-0 renal): 5.04 µM | GI50 (A549 NSCLC): 3.63 µM | TGI (A549 NSCLC): 16.6 µM | GI50 (HL-60(TB) leukemia): 2.24 µM | TGI (HL-60(TB) leukemia): 6.45 µM | GI50 (U251 CNS): 1.87 µM | TGI (U251 CNS): 3.9 µM | GI50 (HCT-116 colon): 1.86 µM | TGI (HCT-116 colon): 3.6 µM | GI50 (HOP-92 NSCLC): 1.92 µM | TGI (HOP-92 NSCLC): 5.26 µM | GI50 (BT-549 breast): 1.91 µM | TGI (BT-549 breast): 3.89 µM | GI50 (OVCAR-8 ovarian): 2.72 µM | TGI (OVCAR-8 ovarian): 7.44 µM | GI50 (NCI-H460 lung): 2.29 µM | TGI (NCI-H460 lung): 5.12 µM | GI50 (SK-MEL-2 melanoma): 2.41 µM | TGI (SK-MEL-2 melanoma): 5.91 µM | GI50 (COLO 205 colon): 2.22 µM | TGI (COLO 205 colon): 5.28 µM | GI50 (CAKI-1 renal): 1.84 µM | TGI (CAKI-1 renal): 4.06 µM | GI50 (UACC-62 melanoma): 1.85 µM | TGI (UACC-62 melanoma): 3.91 µM | GI50 (SW-620 colon): 1.79 µM | TGI (SW-620 colon): 3.45 µM | GI50 (NCI-H226 lung): 2.82 µM | TGI (NCI-H226 lung): 8.47 µM | GI50 (MDA-MB-435): 1.92 µM | TGI (MDA-MB-435): 4.36 µM | GI50 (SNB-19 CNS): 1.72 µM | TGI (SNB-19 CNS): 3.16 µM | GI50 (DU-145 prostate): 1.72 µM | TGI (DU-145 prostate): 3.22 µM | GI50 (NCI-H23 lung): 2.18 µM | TGI (NCI-H23 lung): 5.26 µM | GI50 (SF-295 CNS): 1.93 µM | TGI (SF-295 CNS): 4.12 µM | GI50 (UACC-257 melanoma): 2.88 µM | TGI (UACC-257 melanoma): 8.63 µM | GI50 (PC-3 prostate): 2.57 µM | TGI (PC-3 prostate): 6.89 µM | GI50 (SK-MEL-5 melanoma): 1.81 µM | TGI (SK-MEL-5 melanoma): 3.31 µM | GI50 (SNB-75 CNS): 1.37 µM | TGI (SNB-75 CNS): 3.67 µM | GI50 (MOLT-4 leukemia): 2.44 µM | TGI (MOLT-4 leukemia): 6.38 µM | GI50 (NCI-H522 lung): 2.12 µM | TGI (NCI-H522 lung): 5.45 µM | GI50 (IGROV1 ovarian): 2.13 µM | TGI (IGROV1 ovarian): 5.1 µM | GI50 (ACHN renal): 1.97 µM | TGI (ACHN renal): 4.07 µM | GI50 (OVCAR-3 ovarian): 1.64 µM | TGI (OVCAR-3 ovarian): 3 µM | GI50 (UO-31 renal): 1.7 µM | TGI (UO-31 renal): 3.44 µM | GI50 (K-562 leukemia): 2.85 µM | TGI (K-562 leukemia): > 100 µM | GI50 (RXF 393 renal): 1.84 µM | TGI (RXF 393 renal): 3.65 µM | GI50 (EKVX NSCLC): 2.14 µM | TGI (EKVX NSCLC): 5.92 µM | GI50 (MALME-3M melanoma): 1.98 µM | TGI (MALME-3M melanoma): 4.95 µM | GI50 (M14 melanoma): 2 µM | TGI (M14 melanoma): 4.76 µM | GI50 (SF-539 CNS): 1.82 µM | TGI (SF-539 CNS): 3.49 µM | GI50 (MDA-MB-231 breast): 1.81 µM | TGI (MDA-MB-231 breast): 3.62 µM | GI50 (HCC-2998 colon): 1.75 µM | TGI (HCC-2998 colon): 3.39 µM | GI50 (NCI/ADR-RES ovarian): 3.09 µM | TGI (NCI/ADR-RES ovarian): 12.8 µM | GI50 (HCT-15 colon): 1.98 µM | TGI (HCT-15 colon): 4.64 µM | GI50 (SN12C renal): 2.05 µM | TGI (SN12C renal): 4.49 µM
